Read-outs that look alike come from different tables or passages of the source.
How the values were obtained:
MCF‐7 = settings: MCF‐7, 24 h, cited from earlier work
MDA‐MB‐231 = settings: MDA‐MB‐231, 24 h, cited from earlier work
[1] = tested on: cancer cell proliferation; set-up: method as in PMID 27074576; settings: read-out: Effective range of cytotoxicity IC50 values in inhibiting cancer cell proliferation; cited from earlier work
PGE2 release [2] = assay: PGE2 ELISA, MDA‐MB‐231; assay type: cell-based, human; settings: MDA‐MB‐231, 3 µM
Procedure: (§1) PGE2 ELISA kit (ENZO, ADI‐900‐001) was used to determine prostaglandin synthesis levels. MCF‐7 and MDA‐MB‐231 breast cancer cells were cultured at a density of 1 × 10^6 cells/well in a 6‐well culture dish. […] Following 24 h of incubation, the medium was replaced with a fresh one, 10 µM arachidonic acid was added, and it was further incubated for 1 h. The PGE2 levels were determined according to the kit protocol.

PGE2 release [3] = assay: PGE2 ELISA, MCF‐7; assay type: cell-based, human; settings: MCF‐7, 3 µM
Procedure: as §1

[4] = tested on: multiple myeloma cell lines; set-up: method as in Yasui et al. (2007) [63]; settings: 48 h, ref Yasui et al. (2007) [63]; cited from earlier work
[5] = monolayer cultures, ref Huang et al. (2017) [64]
[6] = monolayer cultures, ref Huang et al. (2017) [64], listed as celecoxib

## O=c1[nH]cc(F)c(=O)[nH]1 [5‐FU]
MCF‐7; ref Badawi et al. (2023) [68]
  IC50: 17 µM
MDA‐MB‐231; ref Badawi et al. (2023) [68]
  IC50: 11.7 µM

## Cc1ccc(-c2cc(C(F)(F)F)nn2-c2ccc(S(N)(=O)=O)cc2)cc1 [Celecoxib]
MCF‐7; [5]
  IC50: 89 µM
MCF‐7; [6]
  IC50: 40.1 µM
[1]
  IC50: 25 to 100 µM
MDA‐MB‐231; [5]
  IC50: 40.1 µM
MDA‐MB‐231; [6]
  IC50: 89 µM

## CS(=O)(=O)c1ccc(-c2cc(Br)sc2-c2ccc(F)cc2)cc1 [DUP‐697]
PGE2 release [2]
  Reduction of PGE2 release: 88%
PGE2 release [3]
  Reduction of PGE2 release: 46%

## CCc1cccc2c3c([nH]c12)[C@@](CC)(CC(=O)O)OCC3 [Etodolac R‐enantiomer SDX‐101]
[4]
  IC50: 490 µM

Source: publication PMC12337082 (Journal of Biochemical and Molecular Toxicology, 2025)
